Measured values as given in PubChem BioAssay AID511.

Biological target: Arf-GAP with GTPase, ANK repeat and PH domain-containing protein 2 (Homo sapiens) (UniProt Q99490)
Assay: CENTG1 binders by thermal stabilization, biophysical, DSF, SYPRO orange, recombinant protein (AID 511)
Conditions: at 50000 µM, protein 4.5 µM, buffer 100 mM HEPES, pH 7.5, NaCl 150 mM, stronger effect = higher value

Chain of Arf-GAP with GTPase, ANK repeat and PH domain-containing protein 2 (Homo sapiens) (Q99490 whole entry, looked up, the tested form may be a part): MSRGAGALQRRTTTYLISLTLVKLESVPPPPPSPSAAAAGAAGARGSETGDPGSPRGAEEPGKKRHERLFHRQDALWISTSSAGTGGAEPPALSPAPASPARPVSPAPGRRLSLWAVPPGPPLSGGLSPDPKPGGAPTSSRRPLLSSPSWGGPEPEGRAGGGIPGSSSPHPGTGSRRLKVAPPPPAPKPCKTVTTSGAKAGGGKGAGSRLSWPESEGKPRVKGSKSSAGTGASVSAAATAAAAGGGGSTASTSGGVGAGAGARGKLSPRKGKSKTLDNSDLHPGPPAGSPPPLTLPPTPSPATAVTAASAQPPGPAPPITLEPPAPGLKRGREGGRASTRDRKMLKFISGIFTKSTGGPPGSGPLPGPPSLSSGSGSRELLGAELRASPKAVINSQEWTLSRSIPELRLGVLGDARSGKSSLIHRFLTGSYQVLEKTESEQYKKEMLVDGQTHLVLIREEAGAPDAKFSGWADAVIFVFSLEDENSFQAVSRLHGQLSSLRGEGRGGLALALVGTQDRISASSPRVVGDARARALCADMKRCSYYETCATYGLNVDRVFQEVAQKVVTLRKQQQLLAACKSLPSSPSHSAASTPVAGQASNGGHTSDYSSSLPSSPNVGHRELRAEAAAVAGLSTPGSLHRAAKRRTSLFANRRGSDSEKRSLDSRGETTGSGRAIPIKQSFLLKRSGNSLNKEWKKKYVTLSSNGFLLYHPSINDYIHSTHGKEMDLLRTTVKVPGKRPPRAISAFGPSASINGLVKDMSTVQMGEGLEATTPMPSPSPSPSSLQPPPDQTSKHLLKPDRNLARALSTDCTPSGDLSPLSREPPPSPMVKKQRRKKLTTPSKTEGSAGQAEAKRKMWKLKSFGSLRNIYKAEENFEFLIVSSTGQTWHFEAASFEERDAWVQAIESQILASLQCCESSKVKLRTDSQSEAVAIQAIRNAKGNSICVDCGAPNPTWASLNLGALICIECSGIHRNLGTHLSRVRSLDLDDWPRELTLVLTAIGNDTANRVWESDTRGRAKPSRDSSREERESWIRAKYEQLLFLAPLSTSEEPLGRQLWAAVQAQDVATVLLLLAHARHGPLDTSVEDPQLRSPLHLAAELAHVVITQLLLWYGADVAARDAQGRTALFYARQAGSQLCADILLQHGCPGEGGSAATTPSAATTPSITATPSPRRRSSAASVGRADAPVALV

Tm shift: 3.9 Celsius
Compound: NC(CS)C(=O)O (stereo unspecified)
